Reference: ChEMBL document CHEMBL1201862, “PubChem BioAssay data set” (2004)
Calls of active or inactive are those of the source.

Columns and labels:
[1] = test system: Vero; assay: cells; format: functional, cell-based; conditions: Chlorocebus sabaeus
[2] = test system: Vero; assay: cells; format: functional; conditions: Chlorocebus sabaeus
[3] = reduction of Shn3 3'UTR-driven luciferase in osteoblasts – cell-based, Clone20 osteoblasts, firefly luciferase, cherry-picked, dose response (AID 624132); format: functional;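 also: firefly luciferase luminescence from reporter carrying the Shn3 3'UTR in osteoblasts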
[4] = loss of viability in HepG2 cells – cell-based, CellTiter-Glo, cherry-picked, cytotoxicity control for Shn3 inhibitor project, dose response (AID 624134); format: functional
[5] = non-specific 3'UTR reporter inhibition in Clone20-Shn3RL – cell-based, Renilla luciferase, cherry-picked, counter-screen for Shn3 inhibitor project, dose response (AID 624133); format: functional
[6] = target: T1, Short transient receptor potential channel 4 (Mus musculus, UniProt Q9QUQ5); assay: calcium entry via TRPC4 opening agents – cell-based, HEK293 TRPC4/mu-opioid, Fluo-4 calcium, dose response (AID 434937); format: functional
T1 sequence (Q9QUQ5 whole entry): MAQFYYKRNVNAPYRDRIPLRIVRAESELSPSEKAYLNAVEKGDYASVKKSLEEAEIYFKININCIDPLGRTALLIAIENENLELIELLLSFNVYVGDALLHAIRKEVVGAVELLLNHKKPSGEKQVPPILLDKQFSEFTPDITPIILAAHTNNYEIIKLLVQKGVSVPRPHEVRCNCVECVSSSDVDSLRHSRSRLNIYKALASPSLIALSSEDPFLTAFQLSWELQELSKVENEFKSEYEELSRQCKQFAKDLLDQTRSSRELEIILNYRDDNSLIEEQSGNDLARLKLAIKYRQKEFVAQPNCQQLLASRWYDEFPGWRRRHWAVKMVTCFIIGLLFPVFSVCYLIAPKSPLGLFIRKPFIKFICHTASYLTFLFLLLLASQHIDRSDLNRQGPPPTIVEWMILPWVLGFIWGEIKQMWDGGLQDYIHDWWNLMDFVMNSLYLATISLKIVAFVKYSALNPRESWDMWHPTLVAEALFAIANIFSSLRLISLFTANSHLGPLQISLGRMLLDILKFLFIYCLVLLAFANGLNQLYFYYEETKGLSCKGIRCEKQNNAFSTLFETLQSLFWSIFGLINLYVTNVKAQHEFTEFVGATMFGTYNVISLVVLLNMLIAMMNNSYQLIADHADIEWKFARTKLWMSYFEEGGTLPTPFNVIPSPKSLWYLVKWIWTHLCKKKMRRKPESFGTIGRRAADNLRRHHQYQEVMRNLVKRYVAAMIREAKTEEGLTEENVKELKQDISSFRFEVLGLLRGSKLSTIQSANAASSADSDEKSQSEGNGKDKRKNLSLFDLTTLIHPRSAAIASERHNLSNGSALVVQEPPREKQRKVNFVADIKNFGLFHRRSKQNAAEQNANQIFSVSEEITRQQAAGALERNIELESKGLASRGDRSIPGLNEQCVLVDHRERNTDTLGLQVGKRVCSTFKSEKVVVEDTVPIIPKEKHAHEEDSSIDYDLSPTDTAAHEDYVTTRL

[7] = target: Delta-type opioid receptor (Homo sapiens, UniProt P41143); assay: Counterscreen for agonists of heterodimerization of the mu 1 (OPRM1) and delta 1 (OPRD1) opioid receptors: Luminescence-based cell-based high throughput dose response assay to identify agonists of OPRD1 homodimerization. [Related pubchem assays (depositor defined):AID504326, AID504355, AID504692, AID504904, AID504905]; format: functional
[8] = target: Mu-type opioid receptor (Homo sapiens, UniProt P35372); assay: Counterscreen for agonists of heterodimerization of the mu 1 (OPRM1) and delta 1 (OPRD1) opioid receptors: Luminescence-based cell-based high throughput dose response assay to identify agonists of OPRM1 homodimerization.; format: functional;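 also: U2OS cells expressing OPRM1 and beta-arrestin as split beta-galactosidase partners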
[9] = target: 5-hydroxytryptamine receptor 5A (Homo sapiens, UniProt P47898); assay: Counterscreen for agonists of OPRM1-OPRD1 heterodimerization: luminescence-based cell-based high throughput dose response assay to identify agonists of 5-hydroxytryptamine (serotonin) 5A receptor (HTR5A). [Related pubchem assays (depositor defined):AID504326, AID504355, AID504692, AID504904, AID504905]; format: functional
[10] = target: T2, Cytochrome P450 2D6 (Homo sapiens, UniProt P10635);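 also: CYP2D6 member of a cytochrome P450 panel assay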
[11] = test system: HEK293; assay: cells; conditions: Homo sapiens
[12] = test system: HEK293; assay: cells; conditions: Homo sapiens; remark: listed apart in the source
[13] = target: T3, Cytochrome P450 1A2 (Homo sapiens, UniProt P05177);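 also: PubChem cytochrome P450 panel assay, CYP1A2 panel member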
T3 sequence (P05177 whole entry): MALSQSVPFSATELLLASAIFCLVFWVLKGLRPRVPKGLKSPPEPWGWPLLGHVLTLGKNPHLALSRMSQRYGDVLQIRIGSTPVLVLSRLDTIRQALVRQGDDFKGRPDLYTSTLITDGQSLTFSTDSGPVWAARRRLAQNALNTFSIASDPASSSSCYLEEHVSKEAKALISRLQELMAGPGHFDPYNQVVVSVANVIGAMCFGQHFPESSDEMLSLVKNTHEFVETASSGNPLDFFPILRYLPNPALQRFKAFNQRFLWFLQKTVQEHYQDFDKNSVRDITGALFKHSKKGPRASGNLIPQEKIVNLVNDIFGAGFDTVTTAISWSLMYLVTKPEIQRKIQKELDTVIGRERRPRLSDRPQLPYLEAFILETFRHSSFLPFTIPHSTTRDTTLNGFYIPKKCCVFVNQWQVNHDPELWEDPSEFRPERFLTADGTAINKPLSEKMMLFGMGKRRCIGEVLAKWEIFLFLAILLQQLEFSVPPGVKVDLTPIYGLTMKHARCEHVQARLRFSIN

[14] = target: Cytochrome P450 2C9 (Homo sapiens, UniProt P11712)
[15] = target: T2, Cytochrome P450 2D6; remark: listed apart in the source

T2 sequence (P10635 whole entry): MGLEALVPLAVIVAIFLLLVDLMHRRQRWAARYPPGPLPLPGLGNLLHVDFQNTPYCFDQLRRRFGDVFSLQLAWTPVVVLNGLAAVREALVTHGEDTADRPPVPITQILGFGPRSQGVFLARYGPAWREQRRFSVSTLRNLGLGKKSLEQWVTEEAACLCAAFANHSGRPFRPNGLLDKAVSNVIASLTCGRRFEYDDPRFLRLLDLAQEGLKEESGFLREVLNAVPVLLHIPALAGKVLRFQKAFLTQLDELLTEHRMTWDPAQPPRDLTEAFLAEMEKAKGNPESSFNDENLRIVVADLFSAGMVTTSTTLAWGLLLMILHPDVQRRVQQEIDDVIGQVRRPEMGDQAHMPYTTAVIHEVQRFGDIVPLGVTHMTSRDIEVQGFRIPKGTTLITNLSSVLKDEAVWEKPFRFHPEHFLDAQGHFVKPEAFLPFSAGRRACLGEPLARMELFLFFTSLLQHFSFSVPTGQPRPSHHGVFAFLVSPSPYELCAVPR
Chain of Delta-type opioid receptor (P41143 whole entry): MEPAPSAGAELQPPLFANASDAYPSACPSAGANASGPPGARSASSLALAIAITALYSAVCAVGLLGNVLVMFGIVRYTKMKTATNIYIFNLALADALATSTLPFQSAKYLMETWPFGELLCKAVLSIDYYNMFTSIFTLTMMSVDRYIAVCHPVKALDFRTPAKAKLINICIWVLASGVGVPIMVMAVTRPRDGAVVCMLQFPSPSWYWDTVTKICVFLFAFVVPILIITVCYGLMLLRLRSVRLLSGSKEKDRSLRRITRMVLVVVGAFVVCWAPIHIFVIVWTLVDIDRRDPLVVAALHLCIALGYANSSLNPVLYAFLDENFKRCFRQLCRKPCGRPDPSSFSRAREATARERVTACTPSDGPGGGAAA
Chain of 5-hydroxytryptamine receptor 5A (P47898 whole entry): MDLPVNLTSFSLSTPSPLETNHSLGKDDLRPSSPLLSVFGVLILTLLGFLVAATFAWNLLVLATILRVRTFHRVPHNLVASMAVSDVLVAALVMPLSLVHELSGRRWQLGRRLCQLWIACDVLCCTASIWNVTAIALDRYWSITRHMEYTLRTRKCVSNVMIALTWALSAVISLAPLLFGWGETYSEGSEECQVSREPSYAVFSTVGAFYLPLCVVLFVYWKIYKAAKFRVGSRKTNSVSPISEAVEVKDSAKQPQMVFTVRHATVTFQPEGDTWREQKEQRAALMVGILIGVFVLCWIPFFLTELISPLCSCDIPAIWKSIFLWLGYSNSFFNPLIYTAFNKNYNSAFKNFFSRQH
Chain of Mu-type opioid receptor (P35372 whole entry): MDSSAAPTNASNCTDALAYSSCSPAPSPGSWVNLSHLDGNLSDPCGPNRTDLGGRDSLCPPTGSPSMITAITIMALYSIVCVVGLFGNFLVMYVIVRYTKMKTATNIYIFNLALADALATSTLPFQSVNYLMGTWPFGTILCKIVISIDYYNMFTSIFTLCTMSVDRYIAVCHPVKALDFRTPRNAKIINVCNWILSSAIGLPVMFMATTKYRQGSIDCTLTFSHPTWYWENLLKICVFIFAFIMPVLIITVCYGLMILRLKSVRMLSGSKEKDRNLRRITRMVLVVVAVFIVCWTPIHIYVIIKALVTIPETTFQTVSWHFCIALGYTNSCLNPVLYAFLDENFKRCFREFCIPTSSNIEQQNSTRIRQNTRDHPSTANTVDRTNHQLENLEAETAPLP
Chain of Cytochrome P450 2C9 (P11712 whole entry): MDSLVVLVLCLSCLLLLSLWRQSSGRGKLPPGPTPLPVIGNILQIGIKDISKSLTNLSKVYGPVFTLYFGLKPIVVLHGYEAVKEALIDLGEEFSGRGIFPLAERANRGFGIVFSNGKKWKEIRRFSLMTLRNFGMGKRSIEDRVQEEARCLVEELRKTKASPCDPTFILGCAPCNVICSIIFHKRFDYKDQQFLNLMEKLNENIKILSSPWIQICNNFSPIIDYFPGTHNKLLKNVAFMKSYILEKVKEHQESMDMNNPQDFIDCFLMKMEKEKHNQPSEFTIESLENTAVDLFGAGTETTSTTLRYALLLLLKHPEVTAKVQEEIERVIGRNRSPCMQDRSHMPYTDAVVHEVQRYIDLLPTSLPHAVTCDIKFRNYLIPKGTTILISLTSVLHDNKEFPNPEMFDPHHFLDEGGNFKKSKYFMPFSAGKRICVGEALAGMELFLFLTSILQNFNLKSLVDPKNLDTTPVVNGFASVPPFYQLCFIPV

SMILES	EC50 [6]	EC50 [7]	EC50 [8]	EC50 [9]	AC50 [13]	further results
CCCCn1c(-c2nonc2NC(=O)c2ccccc2Cl)nc2ccccc21	–	–	–	–	–	IC50 [1]: 730 nM (active); CC50 [2]: 11.8 µM (active); AC50 [3]: 1.39 µM (active); AC50 [4]: > 70 µM (inactive); AC50 [5]: 1.11 µM (active)
CCCC(=O)NC(C)C(c1cccs1)N1CCN(c2ccccc2)CC1 (stereo not given)	267 nM (active)	> 92.5 µM (inactive)	> 92.5 µM (inactive)	> 92.5 µM (inactive)	–	–
C=CCn1c(SC(C)C(=O)NCc2ccc3c(c2)OCO3)nc2scc(-c3ccccc3)c2c1=O (stereo not given)	–	–	–	–	–	AC50 [10]: 3.16 µM (inconclusive); EC50 [11]: > 59.7 µM (inactive); EC50 [12]: > 59.7 µM (inactive)
C=C[C@H]1CN2CC[C@@H]1C[C@H]2[C@@H](O)c1ccnc2ccc(OC)cc12.Cl.O	–	–	–	–	inactive	AC50 [14]: inactive
COc1cccc2c1C(=O)c1c(O)c3c(c(O)c1C2=O)C[C@](O)(C(C)=O)C[C@H]3O[C@@H]1C[C@H](N)[C@H](O)[C@H](C)O1	–	–	–	–	inactive	AC50 [15]: inactive
COc1ccc(C(CNC(=O)C(C)c2ccc3cc(OC)ccc3c2)N(C)C)cc1 (stereo not given)	473 nM (active)	> 92.4 µM (inactive)	> 92.4 µM (inactive)	> 92.4 µM (inactive)	–	–
